Source: patent publication EP4043037A1, “CELLULAR HYDRATION COMPOSITIONS CONTAINING CYCLODEXTRINS” (Eastpond Laboratories Limited, priority 2010, dated 2012)

Experiments:
[1] = test system: Wheat seeds (Triticum aestivum); experiment: Wheat seed germination in water with additives; assay type: in vivo
Method: For each condition, ten seeds were placed in continuous water contact in a Petri-type dish kept at 25C in 12 hr light/dark cycles. Photometric images were recorded on days 1 to 6 after seeding. The percentage of seeds germinated was calculated and compared as a function of time and of the applied additive concentrations.
Water samples for seed germination were used alone with no additive, or containing cyclodextrins, or containing clathrate inclusion complexes of cyclodextrin with L-arginine or with nicotinamide (both obtained from Sigma Chemical Co.; St. Louis, MO), or with L-carnitine (from Lonza AG; Switzerland). […] Additive solutions were prepared fresh on the day of germination start.
Germination kinetics in control and additive-modified water under identical conditions were quantified as the percentage of the seeds having a sprout. Each determination consisted of 100 seeds for each parameter. Results are reported in Table 1, below, and in FIGS. 11-13.

C. elegans nematodes = experiment: C. elegans lifespan in media with additives; assay type: in vivo; settings: for effect on C. elegans survival: added to culture media; for effect on C. elegans survival / number of animals surviving to old ages: result in words; for Animals alive, % of initial (N=50): derivatized cyclodextrin 0.1% w/v in media, USA 1 water; for number of animals surviving to old ages: after day 15, 0.1 % w/v; for Animals alive, (N= % of initial =50): parent cyclodextrin 0.1% w/v in media, USA I water
Method: C. elegans nematodes were grown in petri-type dishes containing normal nutrient liquid media prepared alternatively with USA 1 water (described in Example 2) lacking any further additive component (control) or the same water supplemented with a parent α-, β-, or γ-cyclodextrin, and/or a bioactive agent, as an active component of cellular hydration. Fifty ⊥ 3 worms were transferred to each dish. Each condition was repeated in triplicate. Experiments were repeated for USA II and BP I waters described in Example 2.
Water additives: A. Addition of parent α-, β- and γ-cvclodcxtrins. B. Addition of L-arginine and nicotinamide. C. Addition of inclusion complexes of cyclodextrins with L-arginine and nicotinamide.

[2] = NIR spectroscopy of water bonding with cyclodextrin additives; assay type: physicochemical
Method: Hydration bond energies in pure waters and solutions of the same waters containing cyclodextrin compounds were assayed using IR spectroscopy in the near and middle infrared ranges. To record linear signals throughout an entire wavelength range, attenuation from water absorbance was minimized with a short optical length cuvette.
NIR range spectra were registered on a FOSS NIR Systems, Inc. 6500 spectrometer and Sample Transport Module (STM) using a 1 mm-es cuvette. […]
Three samples of water were used in the present study. A first water sample (USA I) was obtained from the U.S. and was purified by reverse osmosis, carbon filtration, ultraviolet light exposure, membrane filtration to 0.2 micron absolute, and ozonation. A second water sample (USA II) was also obtained from the U.S. A third water sample (BP I) was obtained from Budapest, Hungary.
The following cyclodextrins were added to the above described water samples at a concentration range of 0.1% - 5% w/v: • α-cyclodextrin (αCD also denoted as ACD), Lot. No. CYL-2322. • β-cyclodextrin (βCD also denoted as BCD). Lot. No. CYL-2518/2. • γ-cyclodextrin (γCD also denoted as GCD), Lot. No. CYL-2323. • 2-hydroxypropyl-β-cyclodextrin (HPβCD, HPBCD), DS^∗ = 3.5, Lot. No. CYL-2232. • 2-hydroxypropyl-γ-cyclodextrin (HPCD, HPGCD), DS^∗ = 4.8, Lot. No. CYL-2258. • carboxymethyl-β-cyclodextrin (CMBCD), Lot. No. CYL-2576. • quaternary-ammonium-β-cyclodextrin (QABCD).

[3] = day 0, additive 0.5% w/v in USA 1 water, Table 2, percentage of the seeds having a sprout
[4] = day 1, additive 0.5% w/v in USA 1 water, Table 2, percentage of the seeds having a sprout
[5] = day 2, additive 0.5% w/v in USA 1 water, Table 2, percentage of the seeds having a sprout
[6] = day 3, additive 0.5% w/v in USA 1 water, Table 2, percentage of the seeds having a sprout
[7] = day 4, additive 0.5% w/v in USA 1 water, Table 2, percentage of the seeds having a sprout
[8] = wavelength region 900-1200 nm (FIG. 7)
[9] = day 0, additive 0.5% w/v in USA I water, Table 1
[10] = day 1, additive 0.5% w/v in USA I water, Table 1
[11] = day 2, additive 0.5% w/v in USA I water, Table 1
[12] = day 3, additive 0.5% w/v in USA I water, Table 1
[13] = day 4, additive 0.5% w/v in USA I water, Table 1

Row | Compound | Animals alive, % of initial (N=50) (C. elegans nematodes; life span 10 days) | Animals alive, % of initial (N=50) (C. elegans nematodes; life span 15 days) | Animals alive, % of initial (N=50) (C. elegans nematodes; life span 18 days) | water-bond interactions, second-derivative NIR spectra ([2]; 1200-1500 nm (FIG. 8)) | water-bond interactions, second-derivative NIR spectra ([2]; 1620-1710 nm (FIG. 9)) | water-bond interactions, second-derivative NIR spectra ([2]; 2170-2370 nm (FIG. 10)) | water-bond interactions, second-derivative NIR spectra [2, 8] | Animals alive, (N= % of initial =50) (C. elegans nematodes; life span 10 days) | Animals alive, (N= % of initial =50) (C. elegans nematodes; life span 15 days) | Animals alive, (N= % of initial =50) (C. elegans nematodes; life span 18 days) | other results
1 | NC(=O)c1cccnc1 [nicotinamide, reference compound] |  |  |  |  |  |  |  |  |  |  | wheat seed germination rate [1, 3]: 0%; wheat seed germination rate [1, 4]: 0%; wheat seed germination rate [1, 5]: 4%; wheat seed germination rate [1, 6]: 10%; wheat seed germination rate [1, 7]: 60%; effect on C. elegans survival (C. elegans nematodes): little effect
2 | CC(O)COC[C@H]1O[C@@H]2O[C@H]3[C@H](O)[C@@H](O)[C@@H](O[C@H]4[C@H](O)[C@@H](O)[C@@H](O[C@H]5[C@H](O)[C@@H](O)[C@@H](O[C@H]6[C@H](O)[C@@H](O)[C@@H](O[C@H]7[C@H](O)[C@@H](O)[C@@H](O[C@H]8[C@H](O)[C@@H](O)[C@@H](O[C@H]1[C@H](O)[C@H]2O)O[C@@H]8COCC(C)O)O[C@@H]7COCC(C)O)O[C@@H]6COCC(C)O)O[C@@H]5COCC(C)O)O[C@@H]4COCC(C)O)O[C@@H]3COCC(C)O (stereo partly drawn) [HP-β-Cyclodextrin, 2-hydroxypropyl-β-cyclodextrin] | 96 % of initial | 17 % of initial | 0 % of initial | significantly modified | significantly modified | significantly modified | further significantly modified |  |  |  | 
3 | 2-hydroxy-3-N,N,N-trimethylamino)propyl-β-cyclodextrin chloride [Quaternaryammonium-β-Cyclodextrin] | 98 % of initial | 13 % of initial | 2 % of initial | significantly modified | significantly modified | further significantly modified | significantly modified |  |  |  | effect on micro-structure of hydrogen bonds in bulk water (NIR spectral changes) ([2]; comparison among cyclodextrin-treated water samples (FIGS. 9 and 10)): largest
4 | α-cyclodextrin |  |  |  |  |  |  |  | 100 % of initial | 20 % of initial | 2 % of initial | wheat seed germination rate [1, 3]: 0%; wheat seed germination rate [1, 9]: 0 percentage of total seeds; wheat seed germination rate [1, 4]: 11%; wheat seed germination rate [1, 10]: 0 percentage of total seeds; wheat seed germination rate [1, 5]: 18%; wheat seed germination rate [1, 11]: 48 percentage of total seeds; wheat seed germination rate [1, 6]: 68%; wheat seed germination rate [1, 12]: 70 percentage of total seeds; wheat seed germination rate [1, 7]: 92%; wheat seed germination rate [1, 13]: 85 percentage of total seeds; number of animals surviving to old ages (C. elegans nematodes): significantly increased
5 | γ-cyclodextrin |  |  |  |  |  |  |  | 100 % of initial | 13 % of initial | 2 % of initial | number of animals surviving to old ages (C. elegans nematodes): significantly increased
6 | OC[C@H]1O[C@@H]2O[C@H]3[C@H](O)[C@@H](O)[C@@H](O[C@H]4[C@H](O)[C@@H](O)[C@@H](O[C@H]5[C@H](O)[C@@H](O)[C@@H](O[C@H]6[C@H](O)[C@@H](O)[C@@H](O[C@H]7[C@H](O)[C@@H](O)[C@@H](O[C@H]8[C@H](O)[C@@H](O)[C@@H](O[C@H]1[C@H](O)[C@H]2O)O[C@@H]8CO)O[C@@H]7CO)O[C@@H]6CO)O[C@@H]5CO)O[C@@H]4CO)O[C@@H]3CO [β-Cydodextrin, β-cyclodextrin] |  |  |  |  |  |  |  | 100 % of initial | 18 % of initial | 0 % of initial | 
7 | N=C(N)NCCC[C@H](N)C(=O)O [L-Arg, L-arginine, reference compound] |  |  |  |  |  |  |  |  |  |  | wheat seed germination rate [1, 9]: 0 percentage of total seeds; wheat seed germination rate [1, 10]: 0 percentage of total seeds; wheat seed germination rate [1, 11]: 30 percentage of total seeds; wheat seed germination rate [1, 12]: 45 percentage of total seeds; wheat seed germination rate [1, 13]: 60 percentage of total seeds; effect on C. elegans survival (C. elegans nematodes): little effect
8 | carboxymethyl-β-cyclodextrin [Carboxymethyl-β-Cydodextrin] | 94 % of initial | 11 % of initial | 0 % of initial | further significantly modified | significantly modified | significantly modified | further significantly modified |  |  |  | 
